Reference: US6972296B2, “Carboxylic acid derivatives that inhibit the binding of integrins to their receptors” (Encysive Pharmaceuticals Inc., priority 1999, dated 2005)
Each block holds one molecule with its values, some of them ahead of it.

Target: T1, α4β1 integrin (Homo sapiens, UniProt P05556+P13612)
T1 construct: endogenous in cells; host or cells: Ramos cells
Assay: Adhesion of calcein-labeled Ramos cells to CS1 (fibronectin) peptide conjugated ovalbumin
Type: cell-based
Conditions: Ramos cell adhesion to CS1 conjugated ovalbumin
Outline: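 Plates bearing CS1 fibronectin peptide coupled to ovalbumin (0.5 μg/ml coat, 3% BSA block) received calcein-labelled Ramos cells plus compound (100 μM stated) for 30 min at 37 °C. Buffer was TBS pH 7.5 with 1 mM Mg2+, Ca2+, Mn2+; bound cells quantified by fluorescence after lysis; […].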

[1] = Table 7, dose required to give 50% inhibition
[2] = Table 5, dose required to give 50% inhibition

T1 sequence (P13612 34-1032): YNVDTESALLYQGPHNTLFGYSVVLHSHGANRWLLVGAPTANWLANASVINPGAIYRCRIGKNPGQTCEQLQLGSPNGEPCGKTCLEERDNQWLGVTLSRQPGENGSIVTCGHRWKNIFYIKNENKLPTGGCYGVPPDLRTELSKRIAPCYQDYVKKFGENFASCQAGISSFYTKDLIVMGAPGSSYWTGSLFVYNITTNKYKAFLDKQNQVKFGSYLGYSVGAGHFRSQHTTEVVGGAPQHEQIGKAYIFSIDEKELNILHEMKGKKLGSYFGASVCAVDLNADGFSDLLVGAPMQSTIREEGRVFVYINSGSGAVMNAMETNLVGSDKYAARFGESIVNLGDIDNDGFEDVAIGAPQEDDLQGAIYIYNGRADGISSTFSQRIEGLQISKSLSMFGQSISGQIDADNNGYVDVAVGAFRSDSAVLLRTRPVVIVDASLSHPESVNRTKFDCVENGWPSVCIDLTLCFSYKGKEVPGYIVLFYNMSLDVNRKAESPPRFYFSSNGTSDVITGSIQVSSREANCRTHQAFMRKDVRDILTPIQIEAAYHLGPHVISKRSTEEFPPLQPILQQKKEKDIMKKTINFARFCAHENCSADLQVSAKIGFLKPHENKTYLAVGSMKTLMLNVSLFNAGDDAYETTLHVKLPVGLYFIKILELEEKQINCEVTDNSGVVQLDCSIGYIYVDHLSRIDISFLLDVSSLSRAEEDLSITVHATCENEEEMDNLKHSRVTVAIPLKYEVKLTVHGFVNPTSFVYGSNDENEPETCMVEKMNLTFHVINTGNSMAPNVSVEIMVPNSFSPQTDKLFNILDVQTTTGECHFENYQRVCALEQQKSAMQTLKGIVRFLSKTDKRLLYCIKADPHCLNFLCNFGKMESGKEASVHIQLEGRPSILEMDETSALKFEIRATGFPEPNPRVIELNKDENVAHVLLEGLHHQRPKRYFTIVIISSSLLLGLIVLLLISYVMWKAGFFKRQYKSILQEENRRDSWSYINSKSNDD
T1 sequence (P05556 21-798): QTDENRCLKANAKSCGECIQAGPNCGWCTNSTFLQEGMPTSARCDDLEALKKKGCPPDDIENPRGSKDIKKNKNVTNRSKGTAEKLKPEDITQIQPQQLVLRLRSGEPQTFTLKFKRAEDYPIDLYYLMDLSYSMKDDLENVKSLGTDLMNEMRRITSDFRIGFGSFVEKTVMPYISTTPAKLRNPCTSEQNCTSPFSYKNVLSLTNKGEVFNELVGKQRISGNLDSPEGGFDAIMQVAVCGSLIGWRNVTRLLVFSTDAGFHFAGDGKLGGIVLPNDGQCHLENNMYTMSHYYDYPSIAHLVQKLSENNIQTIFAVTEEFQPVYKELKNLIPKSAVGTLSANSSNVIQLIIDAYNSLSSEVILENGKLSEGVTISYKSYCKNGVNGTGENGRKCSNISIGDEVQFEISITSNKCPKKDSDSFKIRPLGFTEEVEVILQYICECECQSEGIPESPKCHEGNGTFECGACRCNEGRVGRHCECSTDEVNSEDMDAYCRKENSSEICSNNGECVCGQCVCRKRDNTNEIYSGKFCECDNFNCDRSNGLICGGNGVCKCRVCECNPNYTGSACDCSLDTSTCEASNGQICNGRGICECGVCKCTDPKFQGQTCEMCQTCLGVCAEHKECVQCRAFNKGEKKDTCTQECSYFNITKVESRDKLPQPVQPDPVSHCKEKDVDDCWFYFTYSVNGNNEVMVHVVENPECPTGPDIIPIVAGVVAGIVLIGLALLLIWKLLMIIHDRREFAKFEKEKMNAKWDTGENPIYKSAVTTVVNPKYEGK

IC50 [1]: 30 nM
Structure (SMILES): Cc1cn(Cc2ccccc2Cl)c(=O)c(NC(=O)N[C@@H](CC(=O)O)c2cccc3ccn(C)c23)c1O

IC50 [1]: 3 nM
Structure (SMILES): CCOc1cccc(Cl)c1Cn1cc(C)c(O)c(NC(=O)N[C@@H](CC(=O)O)c2ccc3cc(OC)ccc3c2)c1=O [(3S)-3-[({[1-(2-chloro-6-ethoxybenzyl)-4-hydroxy-5-methyl-2-oxo-1,2-dihydropyridin-3-yl]amino}carbonyl)amino]-3-(6-methoxy-2-naphthyl)propanoic acid]

IC50 [2]: 10 nM
Structure (SMILES): CCc1cn(Cc2ccccc2Cl)c(=O)c(NC(=O)N[C@@H](CC(=O)O)c2ccc(C)cc2)c1O [(3S)-3-[({[1-(2-chlorobenzyl)-5-ethyl-4-hydroxy-2-oxo-1,2-dihydropyridin-3-yl]amino}carbonyl)amino]-3-(4-methylphenyl)propanoic acid]

IC50 (Table 3, 30 minutes at 37° C.): 300 nM
Structure (SMILES): Cc1ccn(Cc2ccccc2Cl)c(=O)c1NC(=O)N[C@H](C)CC(=O)O

IC50 (Table 6, 30 minutes at 37° C.): 6 nM
Structure (SMILES): CCOc1ccc([C@H](CC(=O)O)NC(=O)Nc2c(O)c(C3CC3)cn(Cc3ccccc3Cl)c2=O)cc1OCC

IC50 (Table 3, 30 minutes at 37° C.): 20 nM
Structure (SMILES): Cc1ccc([C@H](CC(=O)O)NC(=O)Nc2c(Cl)ccn(Cc3ccccc3Cl)c2=O)cc1

IC50 [1]: 10 nM
Structure (SMILES): Cc1ccc([C@H](CC(=O)O)NC(=O)Nc2c(O)c(C)cn(Cc3c(Cl)cccc3OCc3ccccc3)c2=O)cc1

IC50 (Table 4, 30 minutes at 37° C.): > 10000 nM
Structure (SMILES): Cc1ccc([C@H](CC(=O)O)NC(=O)Nc2cccn(Cc3nc4ccccc4o3)c2=O)cc1

IC50 [2]: 20 nM
Structure (SMILES): Cc1ccc([C@H](CC(=O)O)NC(=O)Nc2c(O)ccn(Cc3ccccc3C)c2=O)cc1

IC50 (Table 4, 30 minutes at 37° C.): 300 nM
Structure (SMILES): O=C(O)C[C@H](NC(=O)Nc1cccn(Cc2ccccc2Cl)c1=O)c1ccc2c(c1)OCO2

IC50 (Table 4, 30 minutes at 37° C.): 350 nM
Structure (SMILES): O=C(O)C[C@H](NC(=O)Nc1cccn(Cc2cccs2)c1=O)c1ccc(F)c(C(F)(F)F)c1

IC50 (Table 4, 30 minutes at 37° C.): 200 nM
Structure (SMILES): CC(=O)Nc1ccc(Br)c(Cn2cccc(NC(=O)N[C@@H](CC(=O)O)c3ccc(C)cc3)c2=O)c1

IC50 (Table 4, 30 minutes at 37° C.): 350 nM
Structure (SMILES): Cc1ccc([C@H](CC(=O)O)NC(=O)Nc2cccn(Cc3cccc(Cl)c3Cl)c2=O)cc1

IC50 (Table 6, 30 minutes at 37° C.): 10 nM
Structure (SMILES): COc1cccc(F)c1Cn1cc(C)c(O)c(NC(=O)N[C@@H](CC(=O)O)c2ccc(C)cc2)c1=O

IC50 [2]: 30 nM
Structure (SMILES): Cc1ccc([C@H](CC(=O)O)NC(=O)Nc2c(O)ccn(Cc3ccc(C(C)(C)C)cc3)c2=O)cc1

IC50 [1]: 2 nM
Structure (SMILES): O=C(O)C[C@H](NC(=O)Nc1c(O)c2c(n(Cc3ccccc3Cl)c1=O)CCC2)c1ccc2c(c1)CCO2

IC50 (Table 4, 30 minutes at 37° C.): 3000 nM
Structure (SMILES): O=C(O)C[C@H](NC(=O)Nc1cccn(Cc2ccc(Cl)cc2)c1=O)c1ccc2c(c1)OCO2

IC50 (Table 6, 30 minutes at 37° C.): 700 nM
Structure (SMILES): O=C(O)C[C@@H](Cc1ccccc1Cl)NC(=O)Nc1c(O)ccn(Cc2ccccc2Cl)c1=O

IC50 (Table 6, 30 minutes at 37° C.): 20 nM
Structure (SMILES): Cc1ccc([C@H](CC(=O)O)NC(=O)Nc2c(O)c3c(n(Cc4c(C)cccc4Cl)c2=O)CCC3)cc1

IC50 (Table 4, 30 minutes at 37° C.): 80 nM
Structure (SMILES): Cc1ccc([C@H](CC(=O)O)NC(=O)Nc2cccn(Cc3cc(N)ccc3Br)c2=O)cc1

IC50 [2]: 0.6 nM
Structure (SMILES): CCOc1ccc([C@H](CC(=O)O)NC(=O)Nc2c(O)c(C)cn(Cc3ccccc3Cl)c2=O)cc1OCC [(3S)-3-[({[1-(2-chlorobenzyl)-4-hydroxy-5-methyl-2-oxo-1,2-dihydropyridin-3-yl]amino}carbonyl)amino]-3-(3,4-diethoxyphenyl)propanoic acid]

IC50 [2]: 100 nM
Structure (SMILES): Cc1ccc([C@H](CC(=O)O)NC(=O)Nc2cccn(Cc3c(O)cccc3Cl)c2=O)cc1

IC50 [1]: 5 nM
Structure (SMILES): Cc1ccc([C@H](CC(=O)O)NC(=O)Nc2c(O)c(C)cn(Cc3cc(F)ccc3Cl)c2=O)cc1

IC50 [1]: 25 nM
Structure (SMILES): CCOc1cc([C@H](CC(=O)O)NC(=O)Nc2c(O)c(C)cn(Cc3ccccc3Cl)c2=O)ccc1-c1ccccc1

IC50 (Table 4, 30 minutes at 37° C.): 500 nM
Structure (SMILES): Cc1ccc([C@H](CC(=O)O)NC(=O)Nc2cccn(Cc3cc(F)ccc3Br)c2=O)cc1

IC50 (Table 4, 30 minutes at 37° C.): 1000 nM
Structure (SMILES): Cc1ccc(Cn2cccc(NC(=O)N[C@@H](CC(=O)O)c3ccc4c(c3)OCO4)c2=O)cc1

IC50 (Table 3, 30 minutes at 37° C.): 10 nM
Structure (SMILES): CCCc1ccn(Cc2ccccc2)c(=O)c1NC(=O)N[C@@H](CC(=O)O)c1ccc2c(c1)OCO2 [(3S)-3-(1,3-benzodioxol-5-yl)-3-[({[2-oxo-1-(phenylmethyl)-4-propyl-1,2-dihydro-3-pyridinyl]amino}carbonyl)amino]propanoic acid]

IC50 (Table 4, 30 minutes at 37° C.): 100 nM
Structure (SMILES): O=C(O)C[C@H](NC(=O)Nc1cccn(Cc2ccccc2Cl)c1=O)c1ccccc1

IC50 [2]: 300 nM
Structure (SMILES): Cc1ccc([C@@H](CC(=O)O)NC(=O)Nc2c(O)ccn(Cc3ccccc3Cl)c2=O)cc1

IC50 (Table 3, 30 minutes at 37° C.): 20 nM
Structure (SMILES): Cc1ccc([C@H](CC(=O)O)NC(=O)Nc2c(Nc3ccccc3)ccn(Cc3ccccc3Cl)c2=O)cc1

IC50 (Table 4, 30 minutes at 37° C.): 1300 nM
Structure (SMILES): Cc1ccc([C@H](CC(=O)O)NC(=O)Nc2cccn(Cc3ccc(F)cc3F)c2=O)cc1

IC50 [1]: 20 nM
Structure (SMILES): CCCc1cn(Cc2c(Cl)cccc2OCC)c(=O)c(NC(=O)N[C@@H](CC(=O)O)c2ccc(C)cc2)c1O

IC50 [2]: 3 nM
Structure (SMILES): CCCOc1ccc([C@H](CC(=O)O)NC(=O)Nc2c(O)ccn(Cc3ccccc3Cl)c2=O)cc1OCCC [(3S)-3-[({[1-(2-chlorobenzyl)-4-hydroxy-2-oxo-1,2-dihydropyridin-3-yl]amino}carbonyl)amino]-3-(3,4-dipropoxyphenyl)propanoic acid]

IC50 (Table 3, 30 minutes at 37° C.): 3 nM
Structure (SMILES): Cc1ccc([C@H](CC(=O)O)NC(=O)Nc2c(NC(C)(C)C)ccn(Cc3ccccc3Cl)c2=O)cc1 [(3S)-3-{[({1-[(2-chlorophenyl)methyl]-4-[(1,1-dimethylethyl)amino]-2-oxo-1,2-dihydro-3-pyridinyl}amino)carbonyl]amino}-3-(4-methylphenyl)propanoic acid]

IC50 (Table 6, 30 minutes at 37° C.): 70 nM
Structure (SMILES): Cc1cn(Cc2ccccc2Cl)c(=O)c(NC(=O)N[C@@H](CC(=O)O)c2ccc(OC(F)(F)F)cc2)c1O

IC50 [1]: 2 nM
Structure (SMILES): Cc1cccc(Cl)c1Cn1c2c(c(O)c(NC(=O)N[C@@H](CC(=O)O)c3ccc4[nH]ccc4c3)c1=O)CCC2 [(3S)-3-{[({1-[(2-chloro-6-methylphenyl)methyl]-4-hydroxy-2-oxo-2,5,6,7-tetrahydro-1H-cyclopenta[b]pyridin-3-yl}amino)carbonyl]amino}-3-(1H-indol-5-yl)propanoic acid]

IC50 [2]: 15 nM
Structure (SMILES): CCOc1cccc([C@H](CC(=O)O)NC(=O)Nc2c(O)c(C)c(C)n(Cc3c(C)cccc3Cl)c2=O)c1

IC50 [2]: 9 nM
Structure (SMILES): Cc1ccc([C@H](CC(=O)O)NC(=O)Nc2c(O)ccn(Cc3ccccc3C#N)c2=O)cc1 [(3S)-3-[({[1-(2-cyanobenzyl)-4-hydroxy-2-oxo-1,2-dihydropyridin-3-yl]amino}carbonyl)amino]-3-(4-methylphenyl)propanoic acid]

IC50 [1]: 3 nM
Structure (SMILES): Cc1cccc(Cl)c1Cn1c2c(c(O)c(NC(=O)N[C@@H](CC(=O)O)c3cccc(OC(F)F)c3)c1=O)CCC2

IC50 (Table 3, 30 minutes at 37° C.): 4000 nM
Structure (SMILES): O=C(O)C[C@H](NC(=O)N1CCCCc2ccn(Cc3ccccc3)c(=O)c21)c1ccc2c(c1)OCO2 [(3S)-3-(1,3-benzodioxol-5-yl)-3-({[9-oxo-8-(phenylmethyl)-2,3,4,5,8,9-hexahydro-1H-pyrido[3,4-b]azepin-1-yl]carbonyl}amino)propanoic acid]

IC50 (Table 6, 30 minutes at 37° C.): 15 nM
Structure (SMILES): Cc1ccc([C@H](CC(=O)O)NC(=O)Nc2c(O)c(C)cn(Cc3ccccc3Cl)c2=O)cc1C

IC50 [1]: 6 nM
Structure (SMILES): CCCOc1ccc(Cl)c(Cn2cc(C)c(O)c(NC(=O)N[C@@H](CC(=O)O)c3ccc(C)cc3)c2=O)c1

IC50 (Table 6, 30 minutes at 37° C.): 3 nM
Structure (SMILES): CC(C)Oc1cccc([C@H](CC(=O)O)NC(=O)Nc2c(O)ccn(Cc3ccccc3Cl)c2=O)c1 [(3S)-3-[({[1-(2-chlorobenzyl)-4-hydroxy-2-oxo-1,2-dihydropyridin-3-yl]amino}carbonyl)amino]-3-(3-isopropoxyphenyl)propanoic acid]

IC50 [1]: 10 nM
Structure (SMILES): O=C(O)C[C@H](NC(=O)Nc1c(O)c2c(n(Cc3ccccc3Cl)c1=O)CCC2)c1cccc(OC(F)(F)F)c1
